Data as given in US12478677B2, “Tunable luminescent organic salts for enhanced imaging and photodynamic therapy” (BOARD OF TRUSTEES OF MICHIGAN STATE UNIVERSITY, priority 2017, dated 2025).
pIC50: −log10 of the molar value. Entries after “also recorded” stand apart in the source; their conditions may differ. Where two headings read alike, the source gives them in different places.

Experiments:
A549 cells = test: Viability studies (trypan blue staining and cell counting) with or without IR excitation; format: cell-based, human; conditions: for pIC50: linear regression analysis; for Concentration at which cytotoxic: cells, toxic at low concentration, even without IR light
Description: The cell lines human lung carcinoma (A549), metastatic human melanoma (WM1158) and Vemurafenib-resistant melanoma (Sk-Mel-28-Vem^R) are used. Sk-Mel-28-Vem^R is generated by culturing a parental melanoma cell lines in the presence of 2 μM Vemurafenib for 2 months. Acquired Vemurafenib resistance is defined by >1 log change in IC50 between nonresistant and resistant cell lines. Resistance is maintained through media supplementation with 2 μM Vemurafenib, which is changed every 48 hours. All cells are cultured in DMEM without pyruvate with 10% heat inactivated fetal bovine serum supplemented with glutamine and penicillin/streptomycin, and incubated in 37° C. with 5% CO2.
A549 and WM1158 cells are seeded at a density of 50,000 cells per well in 6-well tissue culture plates. After 24 hours of incubation, media is aspirated and replaced with media containing luminescent dyes at indicated concentrations. Each well is irradiated with an 850 nm LED lamp with an illumination rate of 526 mW/cm^2 for an hour in the incubator, and control cells are left in a dark incubator without irradiation. For studies with Cy7, a 740 nm LED lamp is used instead of an 850 nm, but with a similar illumination flux. Immediately after irradiation, the media is replenished with fresh dye-laced media and allowed to incubate for another 24 hours. […] Viable cell number is determined at 24 and 96 hours using trypan blue staining and a Nexcelom Cellometer Auto T4 cell counter. All assays are done with 3 biological replicates. The fold change in cell proliferation over days of treatment was calculated using the following equation.

mitochondrial superoxide = test: MitoSOX measurement of mitochondrial superoxide; format: cell-based, human; conditions: A549 cells treated 4 days at phototoxic concentrations; with or without light
Excerpt: FIG. 22. Luminescent organic salts generate mitochondrial ROS. […] MitoSOX is used to measure mitochondrial superoxide, and H2DCFDA for general cytoplasmic ROS in A549 cell treated with organic salts at indicated phototoxic concentrations for 4 days.
Photoactive agents accumulate in the mitochondria of cancer cells and generate reactive oxygen species (ROS) with light exposure, depolarizing the mitochondrial membrane potential to cause cell death. Small molecule protective agents that quench ROS have been used to decrease their phototoxicity. However, the exact type of ROS generated by each luminescent agent remains unclear. Photo-induced ROS include singlet oxygen, superoxide radical anion, hydrogen peroxide, hydroxyl radical and others (see FIG. 21). Superoxide is a highly reactive and biologically toxic species deployed in nature to kill invading organisms. It is often formed as a byproduct of mitochondrial respiration but is typically quenched by the highly efficient superoxide dismutase. Hydroxyl radicals are also highly reactive, damaging nearly all forms of biological molecules. Unlike superoxide radical, the hydroxyl radical cannot be easily quenched naturally via enzymes, and endogenous antioxidants are typically required. Singlet oxygen is the excited state of the common triplet oxygen (O2 ground state) and is highly reactive towards organic compounds. Singlet oxygen can be eliminated in mammalian systems by antioxidants. A range of nitroxy radicals can subsequently stem from superoxide (peroxynitrite) or peroxide (nitrogen dioxide) species. […] Each luminescent cation-anion pair generates specific ROS resonant with its own energy level, and cell types can be targeted by generating the key sensitizing ROS. For example, it is expected that CyFPhB is phototoxic (see FIGS. 11A and 11B and 12A and 12B) by generating reactive oxygen species, which can be resonant with its molecular orbital energy levels (FIG. 21). […] No cytoplasmic ROS is detected using general cytoplasmic ROS probe H2DCFDA. […]

[1] = In vivo imaging, organ and tumor localization in orthotopic breast cancer mouse model; conditions: 1 mg/kg intraperitoneal, after 72 hours
Description: Mice are dosed with 1 mg/kg of organic salt in PBS (phosphate buffered saline) via intraperitoneal injection. Live imaging is performed by anesthetizing the mice with 3% isofluorane and using a Leica M165FC microscope with a PE4000 LED light source, DFC9000GT camera, and LAS X imaging software. For internal imaging, mice are sacrificed once tumors reach a size of 20 mm^3 and organs of interest are retrieved and imaged using the system described previously.

[2] = Salt integrity and aggregation in cell media (mass spectrometry, electron microscopy, UV-Vis); format: physicochemical; conditions: cell media
Excerpt: FIGS. 7A-7C. […] Organic salts were first dissolved in DMSO and then diluted in water, forming nanoparticles. […] Combinations of H- and J-aggregation of organic salts can be seen by blue-shifted peaks (lower wavelength) and red-shifted peaks (higher wavelength), respectively. The nanoparticles with small hard anions redissolve in cell media likely due to sterics. […] This is achieved by cation-anion pairs of luminescent organic salts that can be modulated to be either non-toxic for enhanced imaging, or phototoxic for improved PDT. […] IR polymethine cyanine dyes, which have been used as effective theranostics are described. […] This is thought to occur through a mechanism mitigated by tumor vascularization, increased retention in cancer cells, and mitochondrial depolarization. Once in the cell, they accumulate in the mitochondria and lysosomes, where irradiation induces generation of cytotoxic oxygen species. A strategy is described for preventing or inhibiting salt dissociation in cells: aggregates are formed via introduction of the salt into an aqueous media by a solvent vehicle, forming particles with diameters of about 5 nm in size with no precipitation observed. […] This is confirmed by high resolution mass spectrometry, electron microscopy, and UV-Vis spectroscopy. […] Normalized absorption data are sown in FIGS. 7A, 7B, and 7C. This is likely due to steric effects, where if the counterion radius is too small it is not able to protect the nanoparticle stability. This can be characterized by the volume-averaged effective spherical radius of the counterions, where the cutoff is at about 0.275 nm.

Compound: CCN1C(=CC=C2CCCC(C=CC3=[N+](CC)c4ccc5ccccc5c4C3(C)C)=C2Cl)C(C)(C)c2c1ccc1ccccc21.F[P-](F)(F)(F)(F)F [CyPF6]
- pIC50 (A549 cells; A549 cells, 850 nm irradiation, read-out: IC50 850 nm): 6.05
- pIC50 (A549 cells; A549 cells, dark, no irradiation, read-out: IC50 Dark): 5.80
- Toxicity in words, dark and light (A549 cells; A549 cells, with or without IR (850 nm) excitation): toxic both in the dark and under IR (850 nm) illumination; also recorded: cytotoxic
- Toxicity in the dark, in words (A549 cells; A549 cells, without IR excitation): cytotoxic
- Concentration at which cytotoxic (A549 cells): < 2500 nM
- Concentration at which cytotoxic (A549 cells; listed as Cy+ paired with PF6^−): 1600 nM
- Mitochondrial superoxide / ROS generation (MitoSOX), in words (mitochondrial superoxide): catalyzing superoxide with or without light
- Localization in tumor versus other organs [1]: concentration of the organic salt to the tumor
- Aggregation / nanoparticle behaviour in cell media, in words [2]: lack of aggregation observed in cell media
